Data: patent US20100204340A1 (priority 2009, published 2010)

How the values were obtained:
[1] = tested on: adipocyte differentiation; settings: prior art, Biochem Biophys Res Commun 372 (2008) 108-113; cited from earlier work
[2] = Pharmacokinetics in serum and urine upon oral administration; assay type: in vivo, rats; settings: rats, oral, 100 mg/kg body weight
Experimental: The compound in its free and conjugated form is freely absorbed into systemic circulation with the glucoronide detected up to 72 hours.
(FIG. 4). The compound in its free and conjugated form appears in systemic circulation within 15 minutes of administration.

SIRT1 polypeptide = molecular target: T1, SIRT1 polypeptide (Homo sapiens, UniProt Q96EB6); test: SIRT 1 Direct fluorescent Screening Assay kit (Cayman); assay type: biochemical; settings: read-out: Percentage SIRT 1 modulation; for activation at 1 µg/mL: 1 μg/ml; for activation at 10 µg/mL: 10 μg/ml; for activation at 50 µg/mL: 50 μg/ml; for activation at 100 µg/mL: 100 μg/ml; for activation at 250 µg/mL: 250 μg/ml
T1 construct: purchased Cayman Chemical Company 10010401
T1 sequence (Q96EB6 1-747): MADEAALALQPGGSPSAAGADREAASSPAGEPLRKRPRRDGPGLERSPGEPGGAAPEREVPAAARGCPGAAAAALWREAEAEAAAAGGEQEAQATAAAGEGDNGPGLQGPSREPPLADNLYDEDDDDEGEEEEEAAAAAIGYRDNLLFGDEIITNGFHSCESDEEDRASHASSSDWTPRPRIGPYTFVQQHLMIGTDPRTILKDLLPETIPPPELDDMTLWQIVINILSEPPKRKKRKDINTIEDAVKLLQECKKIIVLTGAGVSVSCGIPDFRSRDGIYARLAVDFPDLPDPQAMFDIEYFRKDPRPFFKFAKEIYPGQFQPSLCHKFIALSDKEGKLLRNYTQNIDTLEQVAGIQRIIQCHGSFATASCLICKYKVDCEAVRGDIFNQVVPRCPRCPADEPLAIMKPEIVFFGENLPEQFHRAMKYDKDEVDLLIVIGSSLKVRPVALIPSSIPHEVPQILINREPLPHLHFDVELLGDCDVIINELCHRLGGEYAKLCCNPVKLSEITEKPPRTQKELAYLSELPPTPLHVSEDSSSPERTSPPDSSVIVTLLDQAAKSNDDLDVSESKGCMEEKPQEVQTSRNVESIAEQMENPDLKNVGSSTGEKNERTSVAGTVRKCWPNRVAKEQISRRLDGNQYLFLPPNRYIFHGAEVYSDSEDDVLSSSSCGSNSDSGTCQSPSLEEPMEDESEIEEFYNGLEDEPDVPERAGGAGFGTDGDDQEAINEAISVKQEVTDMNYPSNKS
Experimental: SIRT-1 activation/inhibition was measured using the SIRT 1 Direct fluorescent Screening Assay kit (Catalog No. 10010401) and instructions provided therein of Cayman Chemical Company, 1180 East Ellsworth Road, Ann Arbor, Mich. 48108 USA. (http://www.caymanchem.com/pdfs/10010401.pdf)

3T3-L1 cells = settings: cited from earlier work

## COc1c(O)cc(C=Cc2ccccc2)cc1O [3,5-dihydroxy-4-methoxystilbene]
[1]
  Effect on adipocyte differentiation / adipogenesis: no effect on adipogenesis

## CC(=O)O.Cc1c(O)cc(C=Cc2ccccc2)cc1O [3,5-dihydroxy-4-methylstilbene acetate]
[1]
  Effect on adipocyte differentiation / adipogenesis: no effect on adipogenesis

## COc1ccc(C=Cc2cc(O)cc(O)c2)cc1 [3,5-dihydroxy-40-methoxystilbene]
[1]
  Effect on adipocyte differentiation / adipogenesis: no effect on adipogenesis

## Oc1cc(O)cc(/C=C/c2c(O)cccc2O)c1 [Gnetol, 2,3′,5′,6-tetrahydroxy-trans-stilbene]
[2]; serum
  Oral bioavailability (free form and glucoronide): orally bioavailable
[2]; urine
  Urinary excretion form: excreted predominantly as glucoronides in the urine

## Oc1cc(O)cc(/C=C/c2ccc(O)cc2O)c1 [Oxyresveratrol, trans-2,3′,4,5′-tetrahydroxystilbene]
SIRT1 polypeptide
  activation at 1 µg/mL: 77.8%
  activation at 10 µg/mL: 24.4%
  activation at 50 µg/mL: 60%
  activation at 100 µg/mL: 202%
  activation at 250 µg/mL: 298%

## COc1cc(C=Cc2ccc(O)cc2)cc(OC)c1 [Pterostilbene, 3,5-dimethoxy-4′-hydroxystilbene]
SIRT1 polypeptide
  activation at 1 µg/mL: 2.22%
  activation at 10 µg/mL: 11.1%
  activation at 50 µg/mL: 53.3%
  activation at 100 µg/mL: 113%
  activation at 250 µg/mL: 231%
3T3-L1 cells; approximate conversion of 23.9 μg/ml, read-out: Reported IC50 (adipogenesis), converted
  IC50: ~96 µM
3T3-L1 cells; reported, Remsberg et al., 3T3-L1
  Reported IC50 (adipogenesis): 23.9 µg/mL

## CC(NC(=O)c1ccccc1/N=C/c1c(O)ccc2ccccc12)c1ccccc1 (stereo not shown) [Sirtinol, 2-[(2-Hydroxynaphthalen-1-ylmethylene)amino]-N-(1-phenyl-ethyl)•benzamide]
SIRT1 polypeptide
  activation at 1 µg/mL: 64.4%

## Oc1ccc([C@H]2c3c(O)cc(O)cc3[C@H]3c4c(cc(O)cc4[C@@H]2c2cc(/C=C/c4cc(O)cc5c4[C@H](c4cc(O)cc(O)c4)[C@@H](c4ccc(O)cc4)O5)ccc2O)O[C@@H]3c2ccc(O)cc2)cc1 [Vitisin A]
[1]
  Effect on adipocyte differentiation / adipogenesis: inhibited adipocyte differentiation most effectively

## Oc1ccc(/C=C/c2cc(O)cc3c2[C@@H](c2cc(O)cc(O)c2)[C@H](c2ccc(O)cc2)O3)cc1 [e-viniferin]
[1]
  Effect on adipocyte differentiation / adipogenesis: no effect on adipogenesis

## CC(=O)Oc1ccc(C=Cc2cc(OC(C)=O)cc(OC(C)=O)c2)cc1 [resveratrol triacetate]
[1]
  Effect on adipocyte differentiation / adipogenesis: no effect on adipogenesis

## OC[C@H]1O[C@@H](Oc2cc(O)cc(/C=C/c3ccc(O)cc3)c2)[C@H](O)[C@@H](O)[C@@H]1O [resveratrol-3-O-B-D-glucoside]
[1]
  Effect on adipocyte differentiation / adipogenesis: no effect on adipogenesis

## CC(=O)OCC1OC(Oc2cc(C=Cc3ccc(OC(C)=O)cc3)cc(OC(C)=O)c2)C(OC(C)=O)C(OC(C)=O)C1OC(C)=O (stereo not shown) [resveratrol-3-O-Glu hexaacetate]
[1]
  Effect on adipocyte differentiation / adipogenesis: no effect on adipogenesis

## COc1ccc(C=Cc2cc(OC(C)=O)cc(OC3OC(COC(C)=O)C(OC(C)=O)C(OC(C)=O)C3OC(C)=O)c2)cc1OC(C)=O (stereo not shown) [rhaponticin hexaacetate]
[1]
  Effect on adipocyte differentiation / adipogenesis: no effect on adipogenesis

## COc1ccc(/C=C/c2cc(O)cc(O[C@@H]3O[C@H](CO)[C@@H](O)[C@H](O)[C@H]3O)c2)cc1O [rhaponticin]
[1]
  Effect on adipocyte differentiation / adipogenesis: no effect on adipogenesis
